Assay results reported in patent US20230147040A1, “METHOD FOR PROGNOSIS PREDICTION OF SKIN CANCER AND USE THEREOF” (PUBLIC UNIVERSITY CORPORATION NAGOYA CITY UNIVERSITY, priority 2020, published 2023).

Columns and labels:
Type in all cases: in vivo
[1] = test system: G6PD; assay: G6PD activity in patient serum (G6PD assay kit); conditions: Case 4, avelumab and IMRT in combination
Method: For 50 patient serum specimens of 19 cases, the G6PD activity was measured using a G6PD assay kit (Abeam, ab102529). The average activity value of the 50 specimens was 11.45 mU/ml.
The course of Merkel cell carcinoma was confirmed for the cases (Case 1 to 3) of 3 specimens having a particularly high G6PD activity (19 mU/ml or more) among the 50 specimens. In addition, the course of Merkel cell carcinoma was confirmed for a case (Case 4) having a decreased G6PD activity. In FIGS. 6 to 8 shown below, the vertical axis represents the G6PD activity (mU/ml), and the horizontal axis represents the period.

[2] = test system: Merkel cell carcinoma; assay: Clinical course of Merkel cell carcinoma cases under treatment
[3] = test system: cutaneous angiosarcoma; assay: Clinical course of cutaneous angiosarcoma cases under treatment; conditions: primary lesion in the head
[4] = Case B, wPTX, then changed to eribulin

## avelumab
[1]
  G6PD activity: significantly reduced
[2]; Case 1, stage IV, trial of avelumab after failed combination chemotherapy
  clinical outcome: death of current disease was caused after several months
[2]; Case 4, stage III, avelumab alone, after 3 months
  PET/CT accumulation in right submandibular lymph node: enhancement of the accumulation was observed
[2]; Case 4, stage III, avelumab in combination with IMRT
  clinical outcome: complete remission (CR)

## CC(=O)O[C@@]12CO[C@@H]1C[C@H](O)[C@@]1(C)C(=O)[C@H](O)C3=C(C)[C@@H](OC(=O)[C@H](O)[C@@H](NC(=O)OC(C)(C)C)c4ccccc4)C[C@@](O)([C@@H](OC(=O)c4ccccc4)[C@H]21)C3(C)C [wDTX]
[3]; Case C, upon administration of wDTX
  clinical course: pneumothorax was developed

## CC(=O)O[C@H]1C(=O)[C@@]2(C)[C@H]([C@H](OC(=O)c3ccccc3)[C@]3(O)C[C@H](OC(=O)[C@H](O)[C@@H](NC(=O)c4ccccc4)c4ccccc4)C(C)=C1C3(C)C)[C@]1(OC(C)=O)CO[C@@H]1C[C@@H]2O [wPTX]
[3]; Case A, wPTX therapy and radiation therapy
  clinical course: the performance status (PS) deteriorated
[3]; [4]
  clinical course: parotid lymph node metastasis was observed

## C=C1C[C@@H]2CC[C@@]34C[C@H]5O[C@H]6[C@@H](O3)[C@H]3O[C@H](CC[C@@H]3O[C@H]6[C@H]5O4)CC(=O)C[C@@H]3[C@@H](OC)[C@@H](C[C@H](O)CN)O[C@H]3C[C@H]3O[C@@H](CC[C@@H]1O2)C[C@@H](C)C3=C [eribulin]
[3]; [4]
  clinical course: pneumothorax (PD) was developed

## COc1cc([C@@H]2c3cc4c(cc3[C@@H](O[C@@H]3O[C@@H]5CO[C@@H](C)O[C@H]5[C@H](O)[C@H]3O)[C@H]3COC(=O)[C@H]23)OCO4)cc(OC)c1O [VP-16]
[2]; Case 1, stage IV, systemic lymph node metastasis after surgical resection and radiation therapy, combination therapy of CBDGB and VP-16
  therapeutic effect: no therapeutic effect was observed
